According to patent US4734280A, “Treatment or prevention of PAF Acether-induced maladies” (priority 1984, dated 1988):
Read-outs that look alike come from different tables or passages of the source.

Columns and labels:
Sprague-Dowley rats = experiment: Cutaneous vascular hyperpermeability induced by PAF Acether in the rat; format: in vivo; settings: 1 mg/kg IV; for PAF Acether induced wheal, Surface: PAF Acether 25 ng intradermal, 30 mn; for PAF Acether induced wheal, Surface / PAF Acether induced wheal, Coloration OD: p < 0.001; for PAF Acether induced wheal, Coloration OD: optical density at 620 nm; for PAF Acether induced wheal, Coloration % decrease / PAF Acether induced wheal, Surface % decrease: vs control
Description: Method: Intradermal injection of 25 ng of PAF Acether in the dorsal region of the rat with simultaneous IV injection of Evans blue dye (60 mg/kg/5 ml) induces vascular hyperpermeability and wheals formation. (for details see Basran GS, Page CP, Paul W and Morley J-Cromoglycate inhibits responses to platelet-activating factor (PAF Acether) in man: an alternative mode of action for DSCG in asthma-Eur. J. Pharma. (1983) 86 143-144).
These wheals were measured (surface in mm^2) at the inner side of the skin 30 mn after the injections and were taken off, put in 4 ml of formamide, incubated at 65° C. during 24 h in order to extract the dye and measure their coloration (optical density at 620 nm).
Groups of 6 Sprague-Dowley rats weighing 200 g were used and each rat received intradermal injections in two sites of the back. The experiment was performed in comparison with a reference compound, D 600 (methoxy verapamil), a calcium-blocker agent.
Treatments: Tested compounds were administered by IV route injected once simultaneously with the dye.

[1] = system: guinea-pig lung parenchymal strip; experiment: PAF Acether-induced contraction of superfused lung parenchymal strip; settings: for inhibition at 30 µg/mL: Cavia porcellus, read-out: change of PAF Acether (3 ng)-induced contraction; for Contraction induced by PAF Acether (3 ng) (Arbitrary Units): preventive superfusion 30 μg/ml, average of 10 determinations
[2] = system: rabbit plasma-rich platelets (PRP); experiment: Aggregation induced by other known aggregants (ADP, thrombine, calcium ionophore A 23187, collagen, adrenaline); format: cell-based; settings: calcium ionophore A 23187, collagen and adrenaline
Hartley guinea-pig = experiment: PAF Acether-induced bronchoconstriction in the anesthetized guinea-pig; format: in vivo; settings: 1 mg/kg IV; for % of bronchoconstriction: 5 minutes before PAF Acether 60 ng/kg IV, % of maximal bronchoconstriction, average of 10 animals; for % of inhibition (bronchoconstriction): vs solvent in the same batch
Description: Method: (For details, see B. B. VARGAFTIG, J. LEFORT, F. WAL, M. CHIGNARD and M. C. MEDEIROS-Non-steroidal anti-inflammatory drugs of combined with anti-histamine and anti-serotonin agents interfere with the bronchial and platelet effects of PAF Acether-Enr. J. Pharm. (1982) 82 121-130). Male Hartley guinea-pig (400-500 g) were anesthetized with urethane 2 g/kg Ip., tracheotomised and ventilated by mean of a respiratory pump: 70-80 strokes mn, stroke volume 5 ml, a pneumothorax was done to abolish spontaneous respiration. The right jugular vein was catherized and used for injections.
The initial resistance was kept constant at 10 cm H2 O pressure according to the method of Konzett and Rossler and the overflowed airway was measured with a bronchospasm transducer UGO BASILE connected to a UGO BASILE recorder "GEMINI". Bronchial sensitivity of the animal was checked with acetylcholine (10-40 ng kg^-1 IV) and after constant response was obtained, there were injected, IV, first the propylene glycol and, five minutes later, 60 ng/kg of PAF Acether, which gave the control bronchoconstriction expressed as % of maximal bronchoconstriction given by clamping off the trachea. 40 minutes later, the tested compounds were administered by IV injection and, 5 minutes later, 60 ng/kg of PAF Acether by the same route. This experimentation was conducted on three batches of each 10 animals: first batch for Ginkgolide A, second one for Ginkgolide B and last one for Ginkgolide C, all at the 1 mg/kg dose. The figures of the following table are the average values for the 10 animals of each batch.

New-Zealand rabbits = experiment: PAF Acether-induced shock in the rabbit; format: in vivo; settings: for Extravasation (O.D.): 2 mg/kg IV perfusion, 30 mn, optical density at 590 nm, average of 10 animals; for Behaviour: behavioural modifications / Behaviour: deaths: 2 mg/kg IV, PAF Acether 2 and 4 nmol/kg, 10 animals per batch
Description: Treatment: Tested compounds (Gingkolides A, B and C) or vehicle were perfused in the ear vein in 45 ml NaCl 0.9% for 1 hour before PAF Acether injection. Vehicle consisted of 1.5 ml of propylene glycol completed to 45 ml by isotonic NaCl buffer; Ginkgolides were administered at the dose of 2 mg/kg IV; the figures reported in the following table are the average values of the 10 animals of each batch.

human platelets = experiment: Ex vivo PAF Acether-induced PA in man after IV administration; settings: IV 25 mg, PAF Acether 100 nM
Description: […] DMSO).
The same protocol described hereinabove for rabbit was used in man with only one dose of each Ginkgolide (IV 25 mg) and two blood takes (at 0.5 h and 1 h).

human PRP = experiment: Inhibition of PAF Acether-induced PA, human PRP in vitro; format: cell-based; settings: PAF Acether 100 nM, read-out: IC Doses (PAF Acether-induced PA, human PRP)
Description: (§1) The Inhibition of PAF Acether-induced PA has been studied on rabbit plasma-rich platelets (PRP). Two doses of PAF Acether were used (2.5 nM and 5 nM). The tested compound was added to the medium 3 minutes before PAF Acether and aggregation was followed by monitoring changes in electrical impedance (Whole-Blood aggregometer-chrono-Log); kadsurenone was simultaneously tested as reference compound and the IC50 molar doses of Ginkgolides A, B, C and M and of kadsurenone on PAF Acether-induced rabbit PA (PRP) have been calculated.
The inhibition of PAF Acether-induced PA has been studied on human PRP. The same protocol was used as for rabbit hereinabove.

PAF-Acether receptor = molecular target: T1, PAF-Acether receptor (Oryctolagus cuniculus, UniProt G1TEI7); experiment: Competition with 3H-PAF Acether binding, rabbit membrane platelet preparation; settings: read-out: reduction of 3H-PAF Acether binding
T1 construct: using a rabbit membrane platelet preparation; from tissue; host or cells: rabbit platelets (membrane preparation)
Description: The competition of the alternative binding of either ^3 H-PAF Acether or one of the Ginkgolides was evidenced by radioactive determinations using a rabbit membrane platelet preparation. (100% control=^3 H-PAF Acether alone).

[3] = system: rabbit plasma-rich platelets (PRP); experiment: Inhibition of PAF Acether-induced PA, rabbit PRP in vitro; format: cell-based; settings: Oryctolagus cuniculus, Platelet, average of 10 assays, read-out: IC50 doses on PAF Acether-induced rabbit PA (PRP)
Description: as §1
The results obtained are presented in the following table (average values for 10 assays for each dose) and FIG. 1: […]

[4] = system: guinea-pig mesenteric artery; experiment: Opto-electronic follow-up of PAF Acether-induced thrombus, guinea-pig mesenteric artery; format: in vivo
Description: In this experimental study, 20 guinea-pigs were used. […] Briefly summarized, this method consists in the dissection over a distance of 2 to 3 mm of a branch of the mesenteric artery following gently extraction of a loop of small intestine. By transillumination, the image of this arterial segment is projected onto a set of 30 light-depending resistances (LDR) arranged in two columns of 15 elements each. An LDR element has the property to change its internal resistance as a function of a variation of light intensity. Each LDR is connected into its own Wheatstone bridge, and the changes in light intensity due to thrombus formation will be recorded as variations in electrical potentials and registered as such via a multiplexing device.
In the present investigation, several discriminating parameters are recorded: (a) the t1 interval or the lag period (this is the time interval between the beginning of the PAF Acether superfusion and the first signs of thrombus formation; (b) the td interval is the duration of the thrombotic phenomenon; (c) the O(t) curve indicates the number of LDR elements covered by the thrombus image; (d) the D(t) curve represents during each 30×1/9×10^-2 sec interval the greatest potential deviation on one of the LDR elements covered by the thrombus image; (e) the T(t) curve represents the summation of the potentials registered on the LDR elements during a time interval of 30×1/9×10^-2 sec the TTV(t) curve results from the integration of the T(t) values in function of time; (f) mD, mT, and mO correspond to the maximal values registered on, respectively, the D(t), T(t), and O(t) curves; (g) TTV is the maximal value of the TTV(t) curve, whereas TVM is the value of this curve up to the point where mT is reached.
In a first series of experiments (10 animals) the effect of local superfusion with PAF Acether (10^-4 M) is investigated.
In a second series of experiments (10 animals) the effects of Ginkgolide B and of kadsurenone have been compared preventively and curatively.

T1 sequence (G1TEI7 1-342): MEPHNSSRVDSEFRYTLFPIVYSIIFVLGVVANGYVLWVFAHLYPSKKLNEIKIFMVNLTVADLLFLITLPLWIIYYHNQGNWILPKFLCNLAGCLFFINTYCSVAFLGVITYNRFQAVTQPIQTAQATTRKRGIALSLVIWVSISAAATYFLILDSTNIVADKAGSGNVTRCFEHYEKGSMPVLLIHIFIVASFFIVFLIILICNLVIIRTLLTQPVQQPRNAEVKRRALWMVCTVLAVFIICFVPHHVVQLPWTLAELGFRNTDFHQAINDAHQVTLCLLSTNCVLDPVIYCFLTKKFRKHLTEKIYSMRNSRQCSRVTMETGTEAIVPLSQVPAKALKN

SMILES | PAF Acether induced wheal, Surface (Sprague-Dowley rats) | PAF Acether induced wheal, Coloration OD (Sprague-Dowley rats) | PAF Acether induced wheal, Coloration % decrease (Sprague-Dowley rats) | PAF Acether induced wheal, Surface % decrease (Sprague-Dowley rats) | Contraction induced by PAF Acether (3 ng) (Arbitrary Units) [1] | effect against aggregation induced by other known aggregants [2] | % of bronchoconstriction (Hartley guinea-pig) | % of inhibition (bronchoconstriction) (Hartley guinea-pig) | Extravasation (O.D.) (New-Zealand rabbits; PAF Acether 2 nmol/kg) | Extravasation (O.D.) (New-Zealand rabbits; PAF Acether 4 nmol/kg) | Behaviour: behavioural modifications (New-Zealand rabbits) | Behaviour: deaths (New-Zealand rabbits) | % of aggregation with respect to control (human platelets; blood take at 0.5 h) | % of aggregation with respect to control (human platelets; blood take at 1.0 h) | IC50 (human PRP) | inhibition at 10 µM (PAF-Acether receptor) | IC50 ([3]; PAF Acether 2.5 nM) | IC50 ([3]; PAF Acether 5 nM) | further results
COc1ccc(CCN(C)CCCC(C#N)(c2cc(OC)c(OC)c(OC)c2)C(C)C)cc1OC (stereo not shown) [D 600, methoxy verapamil, reference compound] | 62.6 mm^2 | 0.664 OD | -42% | -39% |  |  |  |  |  |  |  |  |  |  |  |  |  |  | deaths/6 (Sprague-Dowley rats; group of 6 rats): two
C[C@@H]1C(=O)O[C@H]2C[C@@]34[C@H]5C[C@@H](C(C)(C)C)[C@]36[C@@H](OC(=O)[C@@H]6O)O[C@@]4(C(=O)O5)[C@]21O [Ginkgolide A] | 64.3 mm^2 | 0.631 OD | -45% | -37% | 10.30 ± 2.33 Arbitrary Units | totally ineffective | 13.3% | 84.1% | 0.903 O.D. | 0.881 O.D. | No behavioural | No death | 0% | 5.7% | 90 µM | 67% | 8.32 µM | 13.2 µM | inhibition at 30 µg/mL ([1]; 30 μg/ml, p < 0.001): 72.8%
CC1C(=O)OC2C(O)C34C5OC(=O)C3(OC3OC(=O)C(O)C34C(C(C)(C)C)C5O)C12O (stereo not shown) [Ginkgolide C] | 68.1 mm^2 | 0.701 OD | -39% | -34% | 11.08 ± 2.42 Arbitrary Units | totally ineffective | 17.0% | 78.6% | 0.910 O.D. | 0.875 O.D. | No behavioural | No death | 0% | 10.6% | 150 µM | 83% | 15.3 µM | 25.4 µM | inhibition at 30 µg/mL [1]: 70.8%
CC1C(=O)OC2C1C13OC4OC(=O)C(O)C45C(C(C)(C)C)C(O)C(OC1=O)C35C2O (stereo not shown) [Ginkgolide M] |  |  |  |  |  | totally ineffective |  |  |  |  |  |  |  |  |  |  | 122 µM | 20.2 µM | inhibition at 100 µM (PAF-Acether receptor): 79%
C=CCC1=C[C@@]2(OC)C(=CC1=O)O[C@H](c1ccc(OC)c(OC)c1)[C@H]2C [Kadsurenone, kadsurenone, reference compound] |  |  |  |  |  |  |  |  |  |  |  |  |  |  | 130 µM |  | 9.94 µM | 14 µM | thrombus formation when superfused with PAF Acether (preventive) ([4]; PAF Acether superfusion): no thrombus appeared; time for disappearance of pre-formed thrombus (curative) ([4]; PAF Acether-induced thrombus): about 4.30 minutes
